This is an account of results in patent US20230374143A1, “A SORTILIN ANTAGONIST FOR USE IN THE PREVENTION OR TREATMENT OF HEARING LOSS” (Insusense ApS, priority 2020, published 2023).

Broadly, the pIC50 is −log10 of the IC50, conventionally taken in molar units.

The target in assay [1] is T1, hSortilin (Homo sapiens, UniProt Q99523).
T1 sequence (Q99523 78-831): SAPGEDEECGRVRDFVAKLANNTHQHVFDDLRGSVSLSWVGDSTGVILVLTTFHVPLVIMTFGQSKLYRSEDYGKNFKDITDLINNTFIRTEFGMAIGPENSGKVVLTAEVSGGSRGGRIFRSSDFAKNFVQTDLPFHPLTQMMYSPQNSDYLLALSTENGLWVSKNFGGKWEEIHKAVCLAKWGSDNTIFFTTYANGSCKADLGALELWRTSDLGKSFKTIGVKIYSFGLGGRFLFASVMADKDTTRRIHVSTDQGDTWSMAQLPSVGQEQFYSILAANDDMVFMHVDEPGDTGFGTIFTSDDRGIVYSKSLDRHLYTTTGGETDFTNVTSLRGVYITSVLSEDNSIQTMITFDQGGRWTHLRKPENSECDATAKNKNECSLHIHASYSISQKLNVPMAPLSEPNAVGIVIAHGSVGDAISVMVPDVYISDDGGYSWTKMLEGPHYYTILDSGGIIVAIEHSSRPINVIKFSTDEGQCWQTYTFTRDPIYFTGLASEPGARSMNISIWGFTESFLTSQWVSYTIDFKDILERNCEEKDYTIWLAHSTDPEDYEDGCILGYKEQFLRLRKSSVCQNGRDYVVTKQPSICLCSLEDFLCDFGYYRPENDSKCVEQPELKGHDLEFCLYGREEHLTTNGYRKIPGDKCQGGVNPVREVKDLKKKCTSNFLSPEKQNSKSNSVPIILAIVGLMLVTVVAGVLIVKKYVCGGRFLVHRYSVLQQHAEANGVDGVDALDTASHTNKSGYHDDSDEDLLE
In words: Neurotensin SPA assay with [125I]-Neurotensin. It counts as binding. The source says: All values reported are average of at least 4 determinations.^8

For assay [2], the target named is T1, hSortilin. To be noted: expected value, compared with the [125I]-Neurotensin SPA result; cited from earlier work.

pIC50: −log10 of the molar value. Where two headings read alike, the source gives them in different places.

Regarding `CC(C)(C)CC[C@H](NC(=O)c1ccc(Oc2ccccc2)nc1)C(=O)O` (racemic) [*Example 44], the pIC50 on hSortilin [1] ([125I]-Neurotensin, read-out: Observed IC50) is 6.92; on hSortilin [2] it was 7.70. In addition, the “Fold difference between calculated and expected” value on hSortilin [1] (observed versus expected IC50) is given as 6.
